These results are taken from ChEMBL document CHEMBL2203185, “Development of sub-nanomolar dipeptidic ligands of neuropeptide FF receptors” (Bioorg Med Chem Lett, 2012).

Experiment [1] addresses T1, Neuropeptide FF receptor 1 (Homo sapiens, UniProt Q9GZQ6). Description: Displacement of [3H]FFRF-NH2 from human flag-tagged NPFF1 receptor expressed in CHO cells by scintillation counting. The class given is cell-based. In general terms: In a radioligand displacement assay an active substance lowers the binding of a labelled ligand.
Experiment [2] concerns the target T2, Neuropeptide FF receptor 2 (Homo sapiens, UniProt Q9Y5X5). Briefly: Displacement of [3H]FFRF-NH2 from human flag-tagged NPFF2 receptor expressed in CHO cells at 500 nM by scintillation counting. The format is cell-based.
The target in experiment [3] is T2, Neuropeptide FF receptor 2. Description: Displacement of [3H]FFRF-NH2 from human flag-tagged NPFF2 receptor expressed in CHO cells at 5 uM by scintillation counting. The format is cell-based.
The target in experiment [4] is T1, Neuropeptide FF receptor 1. Briefly: Displacement of [3H]FFRF-NH2 from human flag-tagged NPFF1 receptor expressed in CHO cells at 500 nM by scintillation counting. The class given is cell-based.
For experiment [5], the target named is T1, Neuropeptide FF receptor 1. Briefly: Displacement of [3H]FFRF-NH2 from human flag-tagged NPFF1 receptor expressed in CHO cells at 5 uM by scintillation counting. The class given is cell-based.
Experiment [6] addresses T2, Neuropeptide FF receptor 2. Description: Displacement of [3H]FFRF-NH2 from human flag-tagged NPFF2 receptor expressed in CHO cells by scintillation counting. The format is cell-based.
The target in experiment [7] is T2, Neuropeptide FF receptor 2. Description: Ratio of RF2 Ki to compound Ki for human flag-tagged NPFF2 receptor.

One may read the Ki as a measure of affinity in units of concentration, obtained from inhibition or displacement. A low value points to higher affinity. As a reminder, the inhibition is the relative decrease from the control value, in per cent.

T2 sequence (Q9Y5X5 whole entry): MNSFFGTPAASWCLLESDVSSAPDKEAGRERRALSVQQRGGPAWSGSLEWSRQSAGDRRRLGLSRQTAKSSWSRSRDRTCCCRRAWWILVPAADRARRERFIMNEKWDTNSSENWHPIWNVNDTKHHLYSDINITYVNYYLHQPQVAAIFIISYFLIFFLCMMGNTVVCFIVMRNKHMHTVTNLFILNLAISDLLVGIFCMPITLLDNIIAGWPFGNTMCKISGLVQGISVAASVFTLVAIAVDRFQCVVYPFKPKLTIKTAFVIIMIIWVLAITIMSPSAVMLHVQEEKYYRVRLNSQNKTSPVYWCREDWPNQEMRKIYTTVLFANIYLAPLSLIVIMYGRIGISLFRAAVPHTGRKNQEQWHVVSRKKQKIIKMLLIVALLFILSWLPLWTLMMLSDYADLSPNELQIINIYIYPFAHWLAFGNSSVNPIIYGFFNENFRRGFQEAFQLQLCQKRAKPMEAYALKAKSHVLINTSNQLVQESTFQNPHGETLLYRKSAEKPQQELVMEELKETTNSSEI
T1 sequence (Q9GZQ6 whole entry): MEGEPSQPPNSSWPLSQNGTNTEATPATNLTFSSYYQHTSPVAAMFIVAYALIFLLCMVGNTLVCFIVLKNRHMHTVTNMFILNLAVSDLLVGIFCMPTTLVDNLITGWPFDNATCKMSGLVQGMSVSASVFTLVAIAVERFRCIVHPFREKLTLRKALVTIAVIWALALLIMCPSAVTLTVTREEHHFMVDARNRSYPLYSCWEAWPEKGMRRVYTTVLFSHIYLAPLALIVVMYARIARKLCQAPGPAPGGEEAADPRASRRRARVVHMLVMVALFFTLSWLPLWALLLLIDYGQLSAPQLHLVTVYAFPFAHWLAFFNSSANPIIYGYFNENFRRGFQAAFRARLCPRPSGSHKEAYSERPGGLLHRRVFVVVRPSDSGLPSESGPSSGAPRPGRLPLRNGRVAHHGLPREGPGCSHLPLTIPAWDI

For `N=C(N)NCCC[C@@H](NC(=O)/C=C/c1ccccc1)C(=O)N[C@@H](Cc1ccccc1)C(N)=O`, the Ki in experiment [1] came to 0.8 nM; in experiment [6], 117 nM. Besides, the inhibition in experiment [2] amounted to 18%; in experiment [3] it was 58%; in experiment [4], 84%; in experiment [5] it was 95%.
With `N=C(N)NCCC[C@H](NC(=O)C12CC3CC(CC(C3)C1)C2)C(=O)N[C@H](Cc1ccccc1)C(N)=O`, the Ki was 114 nM in experiment [1] and 424 nM in experiment [6]. Also, the inhibition in experiment [2] stood at 4%; in experiment [3], 49%; in experiment [4], 18%; in experiment [5] it was 79%.
As for `COc1cccc(C(=O)N[C@@H](CCCNC(=N)N)C(=O)N[C@@H](Cc2ccccc2)C(N)=O)c1`, the figures for the Ki in experiment [1] and in experiment [6] were 106 nM and 206 nM, respectively. For the same molecule, the inhibition in experiment [2] is 5%; in experiment [3], 60%; in experiment [4] it was 11%; in experiment [5], 85%.
As for `NC(=O)[C@H](Cc1ccccc1)NC(=O)[C@@H](CCCN=C(N)N)NC(=O)c1ccc(-c2ccccc2)cc1`, the Ki in experiment [1] came out at 2 nM; in experiment [6], 94 nM.
Consider `NC(=O)[C@@H](Cc1ccccc1)NC(=O)[C@@H](CCCN=C(N)N)NC(=O)Cc1ccccc1`, for which the Ki in experiment [1] is 273 nM; in experiment [6], 3200 nM.
For `NC(=O)[C@@H](Cc1ccccc1)NC(=O)[C@@H](CCCN=C(N)N)NC(=O)c1ccccc1`, in that order: 198 nM and 2020 nM.
The corresponding values for `NC(=O)[C@H](Cc1ccccc1)NC(=O)[C@H](CCCN=C(N)N)NC(=O)C12CC3CC(CC(C3)C1)C2` are 22 nM and 43 nM.
Turning to `N=C(N)NCCC[C@@H](NC(=O)/C=C/c1ccccc1)C(=O)N[C@H](Cc1ccccc1)C(N)=O`, the Ki in experiment [1] stood at 84 nM; in experiment [6], 1620 nM. Further, the inhibition in experiment [2] worked out at 0%; in experiment [3] it was 14%; in experiment [4], 55%; in experiment [5], 82%.
With `N=C(N)NCCC[C@H](NC(=O)c1ccc2cc[nH]c2c1)C(=O)N[C@@H](Cc1ccccc1)C(N)=O`, the Ki in experiment [1] was 378 nM; in experiment [6] it was 136 nM. The inhibition is 38% in experiment [2], 70% in experiment [3], 41% in experiment [4] and 89% in experiment [5].
As for `NC(=O)[C@H](Cc1ccccc1)NC(=O)[C@H](CCCN=C(N)N)NC(=O)c1ccccc1-c1ccccc1`, the Ki is 0.32 nM in experiment [1] and 590 nM in experiment [6].
For the molecule `N=C(N)NCCC[C@@H](NC(=O)C12CC3CC(CC(C3)C1)C2)C(=O)N[C@@H](Cc1ccccc1)C(N)=O`, the inhibition constant Ki in experiment [1] was found to be 29 nM; in experiment [6], 142 nM. The inhibition was found to be 21% in experiment [2], 60% in experiment [3], 85% in experiment [4] and 100% in experiment [5].
Regarding `N=C(N)NCCC[C@@H](NC(=O)c1ccccc1)C(=O)N[C@@H](Cc1ccccc1)C(N)=O`, the Ki in experiment [1] is 11 nM; in experiment [6] it was 22 nM. For the same molecule, the Ratio Ki in experiment [7] was determined as 5. For the same molecule, the inhibition in experiment [2] came to 55%; in experiment [3], 92%; in experiment [4], 80%; in experiment [5], 90%.
Turning to `N=C(N)NCCC[C@@H](NC(=O)c1ccccc1-c1ccccc1)C(=O)N[C@@H](Cc1ccccc1)C(N)=O`, the Ki is 2 nM in experiment [1] and 4 nM in experiment [6]. The inhibition in experiment [2] turned out to be 65%; in experiment [3] it was 90%; in experiment [4], 89%; in experiment [5] it was 97%.
Consider `N=C(N)NCCC[C@@H](NC(=O)C(c1ccccc1)c1ccccc1)C(=O)N[C@@H](Cc1ccccc1)C(N)=O`, for which the Ki in experiment [1] turned out to be 10 nM; in experiment [6] it was 4 nM. Moreover, the inhibition in experiment [2] is 84%; in experiment [3] it was 100%; in experiment [4], 75%; in experiment [5], 82%.
Regarding `NC(=O)[C@H](Cc1ccccc1)NC(=O)[C@H](CCCN=C(N)N)NC(=O)c1ccc2ccccc2n1`, the values for the Ki in experiment [1] and in experiment [6] were 121 nM and 47 nM, respectively.
For the molecule `N=C(N)NCCC[C@H](NC(=O)c1ccccc1)C(=O)N[C@@H](Cc1ccccc1)C(N)=O`, the inhibitory constant (Ki) in experiment [1] was 23 nM; in experiment [6], 92 nM. In addition, the inhibition in experiment [2] was 32%; in experiment [3], 92%; in experiment [4], 66%; in experiment [5] it was 99%.
In the case of `NC(=O)[C@H](Cc1ccccc1)NC(=O)[C@@H](CCCN=C(N)N)NC(=O)Cc1ccccc1`, the Ki is 35 nM in experiment [1] and 425 nM in experiment [6].
For the molecule `N=C(N)NCCC[C@@H](NC(=O)C(c1ccccc1)c1ccccc1)C(=O)N[C@H](Cc1ccccc1)C(N)=O`, the inhibition constant (Ki) in experiment [1] is 15 nM; in experiment [6] it was 227 nM. Further, the inhibition in experiment [2] came to 18%; in experiment [3], 46%; in experiment [4], 74%; in experiment [5] it was 86%.
In the case of `NC(=O)[C@@H](Cc1ccccc1)NC(=O)[C@@H](CCCN=C(N)N)NC(=O)c1ccc(-c2ccccc2)cc1`, the Ki in experiment [1] worked out at 167 nM; in experiment [6] it was 417 nM.
For `NC(=O)[C@H](Cc1ccccc1)NC(=O)[C@@H](CCCN=C(N)N)NC(=O)c1cccc(-c2ccccc2)c1`, in that order: 6 nM and 9 nM.
